Assay results reported in US20220267349A1, “HETEROCYCLIC COMPOUNDS” (Hoffmann-La Roche Inc., priority 2019, published 2022).

What follows are compounds tested against T1, MAGL (Homo sapiens, UniProt Q99685) (assay: 2-AG assay (MAGL inhibitory activity, hydrolysis of 2-arachidonoylglycerol followed by mass spectrometry)). Details: 50 pM MAGL, 8 μM 2-arachidonoylglycerol, 15 min preincubation, 30 min incubation at RT.
T1 sequence (Q99685 1-303): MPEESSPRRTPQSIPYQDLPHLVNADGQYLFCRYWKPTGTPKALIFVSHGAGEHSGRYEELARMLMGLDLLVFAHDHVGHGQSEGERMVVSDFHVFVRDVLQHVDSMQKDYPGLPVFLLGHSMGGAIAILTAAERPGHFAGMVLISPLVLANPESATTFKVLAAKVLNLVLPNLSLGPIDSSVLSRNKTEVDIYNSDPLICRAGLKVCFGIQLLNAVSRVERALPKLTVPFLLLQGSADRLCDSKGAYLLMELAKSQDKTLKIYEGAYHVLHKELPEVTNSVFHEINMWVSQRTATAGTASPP
Type: biochemical
Experimental: Compounds were profiled for MAGL inhibitory activity by determining the enzymatic activity by following the hydrolysis of the natural substrate 2-arachidonoylglycerol resulting in arachidonic acid, which can be followed by mass spectrometry. This assay is hereinafter abbreviated “2-AG assay”.
The 2-AG assay was carried out in 384 well assay plates (PP, Greiner Cat #784201) in a total volume of 20 μL. Compound dilutions were made in 100% DMSO (VWR Chemicals 23500.297) in a polypropylene plate in 3-fold dilution steps to give a final concentration range in the assay from 12.5 μM to 0.8 pM. 0.25 μL compound dilutions (100% DMSO) were added to 9 μL MAGL in assay buffer (50 mM TRIS (GIBCO, 15567-027), 1 mM EDTA (Fluka, 03690-100 ml), 0.01% (v/v) Tween. After shaking, the plate was incubated for 15 min at RT. To start the reaction, 10 μL 2-arachidonoylglycerol in assay buffer was added. The final concentrations in the assay was 50 pM MAGL and 8 μM 2-arachidonoylglyerol. After shaking and 30 min incubation at RT, the reaction was quenched by the addition of 40 μL of acetonitrile containing 4 μM of d8-arachidonic acid. The amount of arachidonic acid was traced by an online SPE system (Agilent Rapidfire) coupled to a triple quadrupole mass spectrometer (Agilent 6460). A C18 SPE cartridge (G9205A) was used in an acetonitrile/water liquid setup. The mass spectrometer was operated in negative electrospray mode following the mass transitions 303.1→259.1 for arachidonic acid and 311.1→267.0 for d8-arachidonic acid. The activity of the compounds was calculated based on the ratio of intensities [arachidonic acid/d8-arachidonic acid].

IC50	SMILES
791 nM	O=C1CO[C@H]2CCN(C(=O)N3CC(OCc4ccc(C(F)(F)F)cc4F)C3)C[C@@]2(O)N1 [Example 16, (4aS,8aS)-6-[3-[[2-fluoro-4-(trifluoromethyl)phenyl]methoxy]azetidine-1-carbonyl]-4a-hydroxy-5,7,8,8a-tetrahydro-4H-pyrido[4,3-b][1,4]oxazin-3-one]
649 nM	O=C1CO[C@@H]2[C@@H](CN(C(=O)N3CC(c4ccc(CC(F)(F)F)cc4)C3)CC2(F)F)N1 (single isomer, unassigned) [Example 6]
2.6 nM	O=C1CO[C@H]2[C@H](CN(C(=O)N3CC(c4ccc(CC(F)(F)F)cc4)C3)CC2(F)F)N1 (single isomer, unassigned) [Example 5]
11.1 nM	O=C1CO[C@H]2[C@H](CN(C(=O)N3CC(OCc4ccc(C(F)(F)F)cc4F)C3)CC2(F)F)N1 (single isomer, unassigned) [Example 3]
51.8 nM	O=C1COC2=C(CN(C(=O)N3CCC(Cc4ccc(C(F)(F)F)cc4)CC3)CC2)N1 [Example 7, 6-[4-[[4-(Trifluoromethyl)phenyl]methyl]piperidine-1-carbonyl]-4,5,7,8-tetrahydropyrido[4,3-b][1,4]oxazin-3-one]
159 nM	O=C1CN[C@H]2CCN(C(=O)N3CC(OCc4ccc(C(F)(F)F)cc4F)C3)C[C@H]2N1 (single isomer, unassigned) [Example 13, (4aR,8aS)- or (4aR,8aS)-6-[3-[[2-Fluoro-4-(trifluoromethyl)phenyl]methoxy]azetidine-1-carbonyl]-1,2,4,4a,5,7,8,8a-octahydropyrido[3,4-b]pyrazin-3-one]
118 nM	CC1CN(C(=O)N2CC(OCc3ccc(C(F)(F)F)cc3F)C2)CC2NC(=O)COC12 [Example 2, rel-(4aS,8R,8aR)-6-[3-[[2-Fluoro-4-(trifluoromethyl)phenyl]methoxy]azetidine-1-carbonyl]-8-methyl-4,4a,5,7,8,8a-hexahydropyrido[4,3-b][1,4]oxazin-3-one]
3.1 nM	O=C1CC[C@H]2CCN(C(=O)N3CC(OCc4ccc(C(F)(F)F)cc4F)C3)C[C@H]2N1 (racemic) [Example 11, rac-(4aS,8aS)-7-[3-[[2-Fluoro-4-(trifluoromethyl)phenyl]methoxy]azetidine-1-carbonyl]-1,3,4,4a,5,6,8,8a-octahydro-1,7-naphthyridin-2-one]
0.06 nM	O=C1CC[C@H]2CCN(C(=O)N3CCC(C(c4ccccc4)c4ccccc4)CC3)C[C@H]2N1 (racemic) [Example 10, rac-(4aS,8aS)-7-(4-Benzhydrylpiperidine-1-carbonyl)octahydro-1,7-naphthyridin-2(1H)-one]
48.3 nM	O=C1CSC2=C(CN(C(=O)N3CC(OCc4ccc(C(F)(F)F)cc4F)C3)CC2)N1 [Example 17, 6-[3-[[2-fluoro-4-(trifluoromethyl)phenyl]methoxy]azetidine-1-carbonyl]-4,5,7,8-tetrahydropyrido[4,3-b][1,4]thiazin-3-one]
72.8 nM	O=C1CN[C@H]2CCN(C(=O)N3CC(OCc4ccc(C(F)(F)F)cc4F)C3)C[C@H]2N1 (racemic) [Example 12, rac-(4aR,8aS)-6-[3-[[2-Fluoro-4-(trifluoromethyl)phenyl]methoxy]azetidine-1-carbonyl]-1,2,4,4a,5,7,8,8a-octahydropyrido[3,4-b]pyrazin-3-one]
1430 nM	O=C1CN[C@@H]2CCN(C(=O)N3CC(OCc4ccc(C(F)(F)F)cc4F)C3)C[C@@H]2N1 (single isomer, unassigned) [Example 14, (4aS,8aR)- or (4aS,8aR)-6-[3-[[2-Fluoro-4-(trifluoromethyl)phenyl]methoxy]azetidine-1-carbonyl]-1,2,4,4a,5,7,8,8a-octahydropyrido[3,4-b]pyrazin-3-one]
14.3 nM	O=C(N1CCc2ccc(=O)[nH]c2C1)N1CC(OCc2ccc(C(F)(F)F)cc2F)C1 [Example 9, 7-[3-[[2-Fluoro-4-(trifluoromethyl)phenyl]methoxy]azetidine-1-carbonyl]-1,5,6,8-tetrahydro-1,7-naphthyridin-2-one]
3 nM	O=C(N1CCC(C(c2ccccc2)c2ccccc2)CC1)N1CCc2ccc(=O)[nH]c2C1 [Example 8, 7-(4-Benzhydrylpiperidine-1-carbonyl)-1,5,6,8-tetrahydro-1,7-naphthyridin-2-one]
4.4 nM	C[C@H]1CN(C(=O)N2CC(OCc3ccc(C(F)(F)F)cc3F)C2)C[C@H]2NC(=O)CO[C@@H]12 (relative stereo) [Example 1, rel-(4aR,8S,8aS)-6-[3-[[2-Fluoro-4-(trifluoromethyl)phenyl]methoxy]azetidine-1-carbonyl]-8-methyl-4,4a,5,7,8,8a-hexahydropyrido[4,3-b][1,4]oxazin-3-one]
1370 nM	O=C1CO[C@@H]2[C@@H](CN(C(=O)N3CC(OCc4ccc(C(F)(F)F)cc4F)C3)CC2(F)F)N1 (single isomer, unassigned) [Example 4]
1100 nM	O=C1CC(O)[C@H]2CCN(C(=O)N3CC(OCc4ccc(C(F)(F)F)cc4F)C3)C[C@H]2N1 (mixture of isomers) [Example 18, rac-(4aS,8aS)-7-[3-[[2-fluoro-4-(trifluoromethyl)phenyl]methoxy]azetidine-1-carbonyl]-4-hydroxy-1,3,4,4a,5,6,8,8a-octahydro-1,7-naphthyridin-2-one]
